{
  "source": "patent US6649762B1",
  "about": "“Crystal modification C of 8-cyano-1-cyclopropyl-7-(1S,6S-2,8-diazabicyclo-[4.3.0]nonan-8-yl)-6-fluoro-1,4-dihyro-4-oxo-3-quinoline carboxylic” (Bayer Aktiengesellschaft, priority 1999, dated 2003)",
  "key": {"[1]": {"test": "hygroscopicity of the solid", "type": "physicochemical", "settings": "powder obtained by the known preparation process"}, "[2]": {"test": "storage stability of the crystal modification", "type": "physicochemical", "settings": "prolonged storage"}, "pathogenic bacteria": {"test_system": "pathogenic bacteria", "test": "activity against pathogenic bacteria", "settings": "area of human or veterinary medicine"}},
  "data": [
    {"smiles": "N#Cc1c(N2C[C@@H]3CCCN[C@@H]3C2)c(F)cc2c(=O)c(C(=O)O)cn(C3CC3)c12", "note": "[partially amorphous powder, 8-cyano-1-cyclopropyl-7-(1S,6S-2,8-diazabicyclo[4.3.0]nonan-8-yl)-6-fluoro-1,4-dihydro-4-oxo-3-quinolinecarboxylic acid]", "values": [
      {"measurement": "hygroscopicity", "setting": "[1]", "result": "hygroscopic"}
    ]},
    {"smiles": "N#Cc1c(N2C[C@@H]3CCCN[C@@H]3C2)c(F)cc2c(=O)c(C(=O)O)cn(C3CC3)c12", "note": "[CCDC of the crystal modification C, 8-cyano-1-cyclopropyl-7-(1S,6S-2,8-diazabicyclo[4.3.0]nonan-8-yl)-6-fluoro-1,4-dihydro-4-oxo-3-quinolinecarboxylic acid]", "values": [
      {"measurement": "stability of the crystal modification (change into another crystal modification or the amorphous form)", "setting": "[2]", "result": "does not change into another crystal modification or the amorphous form"},
      {"measurement": "activity against pathogenic bacteria", "setting": "pathogenic bacteria", "result": "highly active"}
    ]}
  ]
}
